Here are results for 28 compounds from ChEMBL document CHEMBL3608212, “Design, synthesis, and in vivo activity of novel inhibitors of delta-5 desaturase for the treatment of metabolic syndrome” (Bioorg Med Chem Lett, 2015).

The target in series [1] is T1, Acyl-CoA (8-3)-desaturase (Homo sapiens, UniProt O60427). The series is described as follows: Inhibition of liver delta-5 desaturase (unknown origin).
Target sequence in this assay (O60427 whole entry): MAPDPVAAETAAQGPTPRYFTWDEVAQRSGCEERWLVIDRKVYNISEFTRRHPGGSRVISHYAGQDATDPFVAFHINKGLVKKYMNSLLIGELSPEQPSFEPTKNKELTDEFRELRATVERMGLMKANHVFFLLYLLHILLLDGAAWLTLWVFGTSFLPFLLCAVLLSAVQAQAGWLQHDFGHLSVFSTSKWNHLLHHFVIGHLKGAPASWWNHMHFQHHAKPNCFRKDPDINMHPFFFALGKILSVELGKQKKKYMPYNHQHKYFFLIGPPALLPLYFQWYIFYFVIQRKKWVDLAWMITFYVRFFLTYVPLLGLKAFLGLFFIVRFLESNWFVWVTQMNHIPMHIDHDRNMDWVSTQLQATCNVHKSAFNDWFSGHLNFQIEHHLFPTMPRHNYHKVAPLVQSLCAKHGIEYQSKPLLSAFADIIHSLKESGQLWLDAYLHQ
The nature of series [2]: Plasma concentration in mouse at 60 mg/kg, po after 0.5 hrs by LC/MS-MS analysis. Type of series: ADME, organism-based.
Series [3] is described as follows: Plasma concentration in mouse at 30 mg/kg, po after 0.5 hrs by LC/MS-MS analysis. Type of series: ADME, organism-based.
Series [4] concerns Mus musculus. As to the kind of experiment: In vivo inhibition of delta-5 desaturase in mouse liver assessed as conversion of [14C]-DGLA to [14C]-arachidonic acid at 30 mg/kg, po after 2.5 hrs by TLC analysis relative to control. It is filed as functional.
Series [5] in a line: Ratio of plasma concentration in mouse at 30 mg/kg, po after 0.5 hrs to IC50 for liver delta-5 desaturase (unknown origin). It is filed as ADME, organism-based. The settings on record: in vivo.
The test system of series [6] is Mus musculus. The series is described as follows: In vivo inhibition of delta-5 desaturase in mouse liver assessed as conversion of [14C]-DGLA to [14C]-arachidonic acid at 60 mg/kg, po after 2.5 hrs by TLC analysis relative to control. Type of series: functional.
Series [7] is described as follows: Ratio of plasma concentration in mouse at 60 mg/kg, po after 0.5 hrs to IC50 for liver delta-5 desaturase (unknown origin). Type of series: ADME, organism-based. The settings on record: in vivo.
Series [8] deals with T1, Acyl-CoA (8-3)-desaturase. The series is described as follows: Inhibition of liver delta-5 desaturase (unknown origin) at 1 uM.
Target sequence in this assay (O60427 whole entry, looked up): as the sequence (O60427 whole entry) above

Usually IC50 stands for the concentration at which inhibition is half-maximal. A higher IC50 goes with a need for much substance. In turn, `Clc1cccc(Nc2n[nH]c3ccc(Br)cc23)c1` came in with a concentration for half-maximal inhibition (IC50) in series [1] of 21 nM. By inhibition in vivo is commonly meant the change of the read-out against control, counted positive when it falls. Take `COc1ccc2[nH]nc(Nc3cccc(Cl)c3)c2c1`: the concentration at 0.5 h in series [2] was found to be 14 µM; in series [3], 5.21 µM. In addition, the inhibition in vivo at 30 mg/kg with Mus musculus [4] is 75%. The results for the Ratio in series [5] and in series [7] were 652 and 1753, respectively. The compound also displayed a half-maximal inhibitory concentration (IC50) in series [1] of 8 nM. Further, in the series with Mus musculus [6], the inhibition in vivo at 60 mg/kg was found to be 97%.

The compound `Nc1ccc(Cl)cc1C(=O)Nc1cccc(Cl)c1` gave an IC50 in series [1] of 34 nM.

`Fc1cccc(Nc2n[nH]c3ccccc23)c1` displayed a concentration at 0.5 h in series [3] of 9.45 µM. For the same compound, in the series on Mus musculus [4], the inhibition in vivo at 30 mg/kg was found to be 18%. Further, the Ratio in series [5] is reported as 160. In addition, the IC50 in series [1] worked out at 59 nM. What is called inhibition is the relative decrease from the control value, in per cent. Take `Nc1ccccc1C(=O)Nc1ccc(Cl)cc1`: the inhibition in series [8] was determined as 36%. In series [1], `Clc1cccc(Nc2ccnc3ccccc23)c1` had an IC50 of 18 nM. Turning to `Clc1cccc(NC2CCc3ccccc32)c1` (stereo not drawn), the IC50 in series [1] came to 173 nM. In turn, `FC(F)(F)c1ccc2[nH]nc(Nc3cccc(Cl)c3)c2c1` registered an IC50 in series [1] of 254 nM.

Take `COc1ccc(O)c(C(=O)Nc2cccc(Cl)c2)c1`: the IC50 in series [1] turned out to be 15 nM. As to `Clc1cccc(Nc2ncnc3ccsc23)c1`, the IC50 in series [1] was 50 nM. In turn, `Nc1ccccc1C(=O)Nc1ccc(F)c(Cl)c1` showed a 50% inhibitory concentration (IC50) in series [1] of 155 nM. In turn, `Nc1ccccc1C(=O)Nc1cc(Cl)cc(Cl)c1` displayed an IC50 in series [1] of 245 nM.

For `CCOc1ccc(O)c(C(=O)Nc2cccc(Cl)c2)c1`, in series [1], the IC50 was determined as 925 nM.

Compound `FC(F)(F)Oc1ccc2[nH]nc(Nc3cccc(Cl)c3)c2c1` showed an IC50 in series [1] of over 3000 nM. `Clc1cccc(Nc2cccc3ccccc23)c1` came in with an IC50 in series [1] of 17 nM. As for `CC(C)c1cccc(NC(=O)c2ccccc2N)c1`, 843 nM corresponded to half-maximal inhibition in series [1] (IC50).

`Nc1ccc(F)cc1C(=O)Nc1cccc(Cl)c1` showed an IC50 in series [1] of 67 nM. Still for that read-out and setting: for `Nc1ccccc1C(=O)Nc1cccc(F)c1` the value was 516 nM. For the compound `Fc1ccc2[nH]nc(Nc3cccc(Cl)c3)c2c1`, the concentration at 0.5 h in series [3] worked out at 14.1 µM. In addition, the inhibition in vivo at 30 mg/kg in the series with Mus musculus [4] turned out to be 49%. In series [5], the Ratio is 242. In addition, in series [1], inhibition was half-maximal at 58 nM (IC50). Regarding `Clc1cccc(Nc2nccc3occc23)c1`, the IC50 in series [1] was 371 nM.

`Clc1cccc(Nc2n[nH]c3ccccc23)c1` came in with a concentration at 0.5 h in series [3] of 12.7 µM. For the same compound, the inhibition in vivo at 30 mg/kg in the series with Mus musculus [4] was 42%. In addition, in series [5], the Ratio was 151. Further, the IC50 in series [1] came out at 84 nM. `Cc1ccc2[nH]nc(Nc3cccc(Cl)c3)c2c1` registered an IC50 in series [1] of 6 nM.

`Clc1cccc(Nc2n[nH]c3ccc(Cl)cc23)c1` gave a concentration for half-maximal inhibition (IC50) in series [1] of 5 nM. `Nc1ccccc1C(=O)Nc1cccc(Cl)c1` yielded an IC50 in series [1] of 58 nM. In series [1], `Clc1cccc(Nc2ncnc3sccc23)c1` came in with an IC50 of 260 nM. In turn, `Nc1ccccc1C(=O)Nc1ccccc1Cl` had an inhibition in series [8] of 39%. For `O=C(Nc1cccc(Cl)c1)c1ccccc1O`, the IC50 in series [1] came out at 174 nM. `Clc1cccc(Nc2ncnc3ccccc23)c1` yielded an IC50 in series [1] of 11 nM.
